Test results from patent US7405205B2, “Antitumor antisense sequences directed against R1 and R2 components of ribonucleotide reductase” (Lorus Therapeutics Inc., priority 1996, dated 2008).
Strand notation (5' to 3'): a small letter for the sugar, then the base; units joined by * are phosphorothioate-linked, units joined directly phosphodiester-linked; [ ] holds rarer units or linkages, { } end groups; capitals alone tell only the bases. d = 2'-deoxy (DNA)

How the values were obtained:
Assay type in all cases: cell-based, human
[1] = test system: MIA PaCa-2 pancreatic cell carcinoma; assay: Relative colony forming efficiency after antisense treatment (Table 13); conditions: 0.2 μM antisense oligodeoxyribonucleotide phosphorothioate; MIA PaCa-2 cells; averages of 2-8 determinations
A549 lung cell carcinoma = assay: as above; conditions: 0.2 μM antisense oligodeoxyribonucleotide phosphorothioate; A549 cells; averages of 2-8 determinations
[2] = test system: T24 bladder cell carcinoma; assay: as above; conditions: 0.2 μM antisense oligodeoxyribonucleotide phosphorothioate; T24 cells; averages of 2-8 determinations
[3] = test system: HCT116 colon cell carcinoma; assay: as above; conditions: 0.2 μM antisense oligodeoxyribonucleotide phosphorothioate; HCT116 cells; averages of 2-8 determinations
[4] = test system: HepG2 hepatocellular carcinoma; assay: Relative colony forming efficiency after antisense treatment (Table 13, FIG. 12); conditions: 0.2 μM antisense oligodeoxyribonucleotide phosphorothioate; HepG2 cells; averages of 2-8 determinations
[5] = test system: PC-3 prostrate cell adenocarcinoma; assay: Relative colony forming efficiency after antisense treatment (Table 13); conditions: 0.2 μM antisense oligodeoxyribonucleotide phosphorothioate; PC-3 cells; averages of 2-8 determinations

Sequence	Reduced relative colony forming efficiency, expressed as % inhibition, MIA PaCa-2 [1] [%]	Reduced relative colony forming efficiency, expressed as % inhibition, A549 (A549 lung cell carcinoma) [%]	Reduced relative colony forming efficiency, expressed as % inhibition, T24 [2] [%]	Reduced relative colony forming efficiency, expressed as % inhibition, HCT116 [3] [%]	Reduced relative colony forming efficiency, expressed as % inhibition, HepG2 [4] [%]	Reduced relative colony forming efficiency, expressed as % inhibition, PC-3 [5] [%]
GCGGCGGGGGTTTTCTCTCA (dG*dC*dG*dG*dC*dG*dG*dG*dG*dG*dT*dT*dT*dT*dC*dT*dC*dT*dC*dA; antisense) [AS-II-412-20]	55.25	43.78	22.2	27.98	26.23	73.96
TGGGACAGGGTGCACGGGCG (antisense dT*dG*dG*dG*dA*dC*dA*dG*dG*dG*dT*dG*dC*dA*dC*dG*dG*dG*dC*dG) [AS-II-130-20]	82.11	86.48	51.94	57.98	94.28	74.66
GAAACCAAATAAATCAAGCT (DNA, all phosphorothioate, methylation of C not given here) [AS-II-1790-20]	–	–	–	–	–	87.86
AAGCGGCGGGGGTTTTCTCT (dA*dA*dG*dC*dG*dG*dC*dG*dG*dG*dG*dG*dT*dT*dT*dT*dC*dT*dC*dT; antisense) [AS-II-414-20]	36.11	12.44	11.67	19.1	30.89	60.94
CCAGCACTATAAACAGACAG (DNA, all phosphorothioate, methylation of C not given here) [AS-II-1517-20]	–	–	–	–	–	91.75
TTCTGGCAAAAGGTGATACT (DNA, all phosphorothioate, methylation of C not given here) [AS-II-1538-20]	50.62	90.34	67.29	51.28	96.84	84.71
GAAGTCAGCATCCAAGGTAA (DNA, all phosphorothioate, methylation of C not given here) [AS-II-1342-20]	73.77	65.67	59.76	73.74	82.2	89.84
GAAGCCATAGAAACAGCGGG (antisense; DNA, all phosphorothioate, methylation of C not given here) [AS-II-667-20]	85.26	70.3	70.48	76.9	88.23	91.8
CGGCTCATCCTCCACGC (dC*dG*dG*dC*dT*dC*dA*dT*dC*dC*dT*dC*dC*dA*dC*dG*dC) [AS-II-391-17]	26.35	–	–	–	60.64	93.25
GACGGCTGGGACAGGGTGCA (antisense dG*dA*dC*dG*dG*dC*dT*dG*dG*dG*dA*dC*dA*dG*dG*dG*dT*dG*dC*dA) [AS-II-134-20]	–	–	–	–	–	77.51
TCCTCGCGGTCTTGCTGGCC (dT*dC*dC*dT*dC*dG*dC*dG*dG*dT*dC*dT*dT*dG*dC*dT*dG*dG*dC*dC; antisense) [AS-II-323-20]	97.55	91.24	–	55.8	96.39	79.76
TTGTGTACCAGGTGTTTGAA (DNA, all phosphorothioate, methylation of C not given here) [AS-II-1023-20]	42.82	34.52	58.26	–	–	87.63
ATGGTACTCGATGGGGAAGA (dA*dT*dG*dG*dT*dA*dC*dT*dC*dG*dA*dT*dG*dG*dG*dG*dA*dA*dG*dA) [AS-II-439-20]	92.69	76.46	67.84	64.7	73.04	77.66
AGCCTCTGCCTTCTTATACA (dA*dG*dC*dC*dT*dC*dT*dG*dC*dC*dT*dT*dC*dT*dT*dA*dT*dA*dC*dA; antisense) [AS-II-472-20]	97.13	96.99	69.26	67.23	–	90.7
CCGTGGGCTCCTGGAAGATC (dC*dC*dG*dT*dG*dG*dG*dC*dT*dC*dC*dT*dG*dG*dA*dA*dG*dA*dT*dC; antisense) [AS-II-344-20]	–	–	–	–	–	80.06
CAAATGGGTTCTCTACTCTG (DNA, all phosphorothioate, methylation of C not given here) [AS-II-1217-20]	34.85	91.49	66.36	68.68	–	81.03
GCATCCAAGGTAAAAGAATT (DNA, all phosphorothioate, methylation of C not given here) [AS-II-1335-20]	78.78	78.59	59.95	67.87	72.98	90.04
